The compounds below were run against T1, purified recombinant human Aggrecanase-2 (Agg2-Phe628) (Homo sapiens, UniProt Q9UNA0) (assay: Aggrecanase 2 continuous in vitro fluorescence assay). Conditions: Agg2-Phe628 0.5 μg/ml, substrate 25 μM, 30° C.; read-out: IC50.
T1 construct: (Agg2-Phe628) (MW=41,737), which is a truncated form of full-length human aggrecanase-2; made in house; host or cells: CHO cells
T1 sequence (Q9UNA0 262-628 limits assumed): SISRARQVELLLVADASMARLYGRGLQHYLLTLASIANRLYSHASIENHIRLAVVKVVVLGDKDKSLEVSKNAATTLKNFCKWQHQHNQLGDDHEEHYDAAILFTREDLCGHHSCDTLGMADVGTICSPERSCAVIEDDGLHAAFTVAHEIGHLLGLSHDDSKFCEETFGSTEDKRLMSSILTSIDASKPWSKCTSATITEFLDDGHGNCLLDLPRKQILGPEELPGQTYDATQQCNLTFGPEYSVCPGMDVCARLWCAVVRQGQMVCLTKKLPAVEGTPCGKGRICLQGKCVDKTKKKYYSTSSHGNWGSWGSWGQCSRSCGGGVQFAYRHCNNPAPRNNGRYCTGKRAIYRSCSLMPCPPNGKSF
Assay type: biochemical
Description: A continuous vitro fluorescence assay was employed, wherein the enzyme used in the assay was a purified recombinant human Aggrecanase-2 (Agg2-Phe628) (MW=41,737), which is a truncated form of full-length human aggrecanase-2 that was expressed in CHO cells and purified prior to use. The final concentration of Agg2-Phe628 was 0.5 μg/ml. The buffer used in this assay was 50 mM HEPES, pH 7.5, 100 mM NaCl, 5 mM CaCl2, 0.1% CHAPS, 5% glycerol. The substrate used in the assay was a synthetic peptide having the sequence ABz-[sequence]-Dap(Dnp)-KK—NH2 (>95% pure by HPLC, AnaSpec, Inc.), wherein Abz refers to ortho-aminobenzyl, a fluorescent group which is quenched by energy transfer to a 2,4-dinitrophenyl group. The final concentration of substrate in the assay was 25 μM and was spectrophotometrically determined using the extinction coefficient at 354 nm of 18,172 M^−1cm^−1. The Vmax and Km for this enzyme/substrate reaction were determined to be insensitive to DMSO up to at least 10% (v/v).
The total reaction volume was 100 μl. The buffer and enzyme were added first followed by addition of 10× inhibitor from the dilution plate. Separate enzyme and buffer samples were included in order to obtain the maximal rate of substrate cleavage. The reaction was allowed to stand at 30° C. for 15 minutes, then substrate was added, the resultant solution was mixed. The resultant reaction was allowed to progress, with monitoring, for 40 minutes at 30° C. in kinetic mode using λex: 340 nm and λem: 420 (GeminiXS Molecular Devices).
The fluorescence intensity is linear during the time of data collection. The slope of the line (Vmax/sec) represents the initial reaction rate, ν. The maximal rate of cleavage of substrate was determined in the absence of inhibitor. The percent inhibition of activity in the presence of inhibitor was calculated using the following equation:
% inhibition=(1−ν(RFU/sec))/Maximal Rate(RFU/sec))*100
The IC50 was obtained by fitting the initial rate, ν or % inhibition at each concentration of inhibitor to the following equation:
This model describes a sigmoidal curve with an adjustable baseline, wherein:
y is the % inhibition or initial rate of reaction;
C is the concentration of inhibitor under test;
a is the limiting response as C approaches zero. As C increases without bound y tends toward its lower limit, d;
y is halfway between the lower and upper asymptotes when C=IC50; and
n is the Hill coefficient. The sign of n is positive when the response increases with increasing dose and is negative when the response decreases with increasing dose (inhibition).

Row | SMILES | IC50 [µM]
1 | COc1ccc(C2=NNC3(S2)C(=O)Nc2c3ccc(C)c2OC)cc1 (stereo not shown) [Compound 20, 7-methoxy-5′-(4-methoxyphenyl)-6-methyl-3′H-spiro[indole-3,2′-[1,3,4]thiadiazol]-2(1H)-one] | 5.92
2 | COc1ccc(C2=NNC3(S2)C(=O)N(c2cccc([N+](=O)[O-])c2)c2ccc(C)cc23)cc1 (stereo not shown) [Compound 27, 5′-(4-methoxyphenyl)-5-methyl-1-(3-nitrophenyl)-3′H-spiro[indole-3,2′-[1,3,4]thiadiazol]-2(1H)-one] | 0.995
3 | CCCc1ccc2c(c1)NC(=O)C21NN=C(c2ccc(OC)cc2)S1 (stereo not shown) [Compound 15, 5′-(4-methoxyphenyl)-6-propyl-3′H-spiro[indole-3,2′-[1,3,4]thiadiazol]-2(1H)-one] | 0.775
4 | CCN1C(=O)C2(NN=C(c3ccc(OC)cc3)S2)c2cc(F)c(N3CCN(C)CC3)cc21 (stereo not shown) [Compound 21, 1-ethyl-5-fluoro-5′-(4-methoxyphenyl)-6-(4-methylpiperazin-1-yl)-3′H-spiro[indole-3,2′-[1,3,4]thiadiazol]-2(1H)-one] | 5.42
5 | COc1ccc(C2=NNC3(S2)C(=O)Nc2cc(Cl)ccc23)cc1 (stereo not shown) [Compound 12, 6-chloro-5′-(4-methoxyphenyl)-3′H-spiro[indole-3,2′-[1,3,4]thiadiazol]-2(1H)-one] | 1.19
6 | COc1ccc(C2=NNC3(S2)C(=O)Nc2c(C)cc(C)cc23)cc1 (stereo not shown) [Compound 1, 5′-(4-methoxyphenyl)-5,7-dimethyl-3′H-spiro[indole-3,2′-[1,3,4]thiadiazol]-2(1H)-one] | 3.06
7 | O=C1Nc2ccc(OC(F)(F)F)cc2C12NN=C(c1ccccc1)S2 (stereo not shown) [Compound 31, 5′-phenyl-5-(trifluoromethoxy)-3′H-spiro[indole-3,2′-[1,3,4]thiadiazol]-2(1H)-one] | 7.22
8 | COc1ccc(C2=NNC3(S2)C(=O)Nc2ccc(C)cc23)cc1 (stereo not shown) [Compound 5, 5′-(4-methoxyphenyl)-5-methyl-3′H-spiro[indole-3,2′-[1,3,4]thiadiazol]-2(1H)-one] | 2.53

Continued, values first:

Row | IC50 [µM] | SMILES
9 | 4.88 | C=CCN1C(=O)C2(NN=C(c3ccccc3)S2)c2ccccc21 (stereo not shown) [Compound 41, 1-allyl-5′-phenyl-3′H-spiro[indole-3,2′-[1,3,4]thiadiazol]-2(1H)-one]
10 | 0.899 | COc1ccc(C2=NNC3(S2)C(=O)N(c2ccccc2C)c2ccc(C)cc23)cc1 (stereo not shown) [Compound 23, 5′-(4-methoxyphenyl)-5-methyl-1-(2-methylphenyl)-3′H-spiro[indole-3,2′-[1,3,4]thiadiazol]-2(1H)-one]
11 | > 7 | COc1ccc(C2=NNC3(S2)C(=O)N(C)c2ccccc23)cc1 (stereo not shown) [Compound 2, 5′-(4-methoxyphenyl)-1-methyl-3′H-spiro[indole-3,2′-[1,3,4]thiadiazol]-2(1H)-one]
12 | 24.1 | CN1C(=O)C2(NN=C(c3ccccc3)S2)c2ccccc21 (stereo not shown) [Compound 52, 1-methyl-5′-phenyl-3′H-spiro[indoline-3,2′-[1,3,4]thiadiazol]-2-one]
13 | 2.62 | O=C1N(c2ccccc2)c2ccccc2C12NN=C(c1ccccc1)S2 (stereo not shown) [Compound 38, 1,5′-diphenyl-3′H-spiro[indole-3,2′-[1,3,4]thiadiazol]-2(1H)-one]

Same assay, conditions: inhibitor concentration not given

Row | % Inhibition [%] | SMILES
14 | 4.6 | Cc1ccc(C2=NNC3(S2)C(=O)N(C)c2ccccc23)cc1 (stereo not shown) [Compound 51, 1-methyl-5′-(4-methylphenyl)-3′H-spiro[indole-3,2′-[1,3,4]thiadiazol]-2(1H)-one]
15 | 1.9 | CCc1ccc2c(c1)C1(NN=C(c3ccc(C)cc3)S1)C(=O)N2 (stereo not shown) [Compound 48, 5-ethyl-5′-(4-methylphenyl)-3′H-spiro[indole-3,2′-[1,3,4]thiadiazol]-2(1H)-one]
16 | 50 | COc1ccc(C2=NNC3(S2)C(=O)Nc2cccc(N4CCN(Cc5ccccc5)CC4)c23)cc1 (stereo not shown) [Compound 14, 4-(4-benzylpiperazin-1-yl)-5′-(4-methoxyphenyl)-3′H-spiro[indole-3,2′-[1,3,4]thiadiazol]-2(1H)-one]

From patent US20080125469A1, “Thiadiazole compounds and methods of use thereof” (Wyeth, priority 2006, published 2008)
